Results on six compounds are retold here after ChEMBL document CHEMBL1139479, “Enantioselective nonsteroidal aromatase inhibitors identified through a multidisciplinary medicinal chemistry approach” (J Med Chem, 2005).

This data set concerns the target T1, CYP17 (steroid 17-alpha-hydroxylase/17,20 lyase) (Homo sapiens, UniProt P05093).
T1 sequence (P05093 whole entry): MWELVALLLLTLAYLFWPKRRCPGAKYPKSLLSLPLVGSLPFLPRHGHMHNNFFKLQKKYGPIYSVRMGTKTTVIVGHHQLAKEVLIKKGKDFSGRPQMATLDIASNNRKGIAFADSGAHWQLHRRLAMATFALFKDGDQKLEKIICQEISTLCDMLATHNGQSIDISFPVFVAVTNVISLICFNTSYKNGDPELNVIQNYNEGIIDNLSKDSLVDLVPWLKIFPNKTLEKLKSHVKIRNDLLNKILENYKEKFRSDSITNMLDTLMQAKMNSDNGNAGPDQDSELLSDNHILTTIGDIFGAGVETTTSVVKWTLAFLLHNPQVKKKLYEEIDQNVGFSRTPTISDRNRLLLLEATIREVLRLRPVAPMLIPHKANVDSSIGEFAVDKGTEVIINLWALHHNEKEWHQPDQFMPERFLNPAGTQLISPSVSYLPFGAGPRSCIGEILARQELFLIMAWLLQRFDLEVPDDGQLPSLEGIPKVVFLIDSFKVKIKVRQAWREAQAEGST
Description: in vitro.
Description: Inhibition of human CYP17 expressed in Escherichia coli at 2.5 uM
`O=c1c([C@@H](c2ccc([N+](=O)[O-])cc2)n2ccnc2)coc2ccccc12` gave an inhibition at 2.5 µM of 20%. Take `N#Cc1ccc([C@H](c2coc3ccccc3c2=O)n2ccnc2)cc1`: the inhibition at 2.5 µM came to 6%. Then `O=c1c([C@H](c2ccc(Br)cc2)n2ccnc2)coc2ccccc12`, with 13%; and `N#Cc1ccc([C@@H](c2coc3ccccc3c2=O)n2ccnc2)cc1`, with 6%. For the compound `O=c1c([C@@H](c2ccc(Br)cc2)n2ccnc2)coc2ccccc12`, testing at 2.5 µM gave an inhibition of 17%. Then `O=c1c([C@H](c2ccc([N+](=O)[O-])cc2)n2ccnc2)coc2ccccc12`, with 12%.

As a reminder, the inhibition is how much of the control response was suppressed. Higher therefore signals strong suppression.
